Measurements: ChEMBL document CHEMBL1140015, “Pyrazolone methylamino piperidine derivatives as novel CCR3 antagonists” (Bioorg Med Chem Lett, 2007)
Converted amounts (≈) assume the structure as drawn.

Tests used:
[1] = Metabolic stability in rat liver microsomes assessed as intrinsic clearance; format: ADME, Microsome
[2] = target: T1, C-C chemokine receptor type 3 (Homo sapiens, UniProt P51677); assay: Displacement of [125I]eotaxin from CCR3 receptor in human eosinophils
T1 sequence (P51677 whole entry): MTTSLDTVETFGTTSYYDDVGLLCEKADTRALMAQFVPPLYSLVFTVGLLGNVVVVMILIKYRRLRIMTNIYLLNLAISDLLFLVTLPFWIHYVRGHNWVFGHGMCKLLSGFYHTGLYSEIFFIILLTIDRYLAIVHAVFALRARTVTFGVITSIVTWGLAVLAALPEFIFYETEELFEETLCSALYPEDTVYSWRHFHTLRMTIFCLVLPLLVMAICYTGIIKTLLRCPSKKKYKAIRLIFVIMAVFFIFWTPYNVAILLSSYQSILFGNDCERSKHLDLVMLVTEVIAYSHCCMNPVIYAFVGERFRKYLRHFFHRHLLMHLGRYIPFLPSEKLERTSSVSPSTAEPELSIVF

Hepatocyte [3] = assay: Metabolic stability in rat hepatocytes after 2 hrs; format: ADME, cell-based
Hepatocyte [4] = assay: Metabolic stability in rat hepatocytes after 19 hrs; format: ADME, cell-based
[5] = Solubility in water at pH 7.4
[6] = Permeability from apical to basolateral side of Caco-2 cell membrane; settings: human
[7] = target: T1, C-C chemokine receptor type 3; assay: Antagonist activity at human CCR3 receptor assessed as inhibition of calcium flux; format: functional

| Compound | microsomal CLint [1] [µL/min/mg] | IC50 [2] [nM] | Stability (Hepatocyte [3]) [%] | Stability (Hepatocyte [4]) [%] | solubility [5] [µg/mL] | Papp A→B [6] [×10⁻⁶ cm/s] | IC50 [7] [nM] |
| --- | --- | --- | --- | --- | --- | --- | --- |
| Cc1c(CN(CCc2ccccn2)C2CCN(C(=O)c3c(F)cccc3F)CC2)c(=O)n(-c2ccc(F)cc2)n1C | 82 | 1000 | 35 | 78 |  |  |  |
| Cc1c(CN(CCc2ccc(S(N)(=O)=O)cc2)C2CCN(C(=O)c3c(F)cccc3F)CC2)c(=O)n(-c2ccc(F)cc2)n1C | < 50 | > 10000 | 43 | 86 | 400 (≈ 623 µM) | < 1 |  |
| Cc1c(CN(CCc2ccc(Cl)cc2)C2CCN(C(=O)c3c(F)cccc3F)CC2)c(=O)n(C2CCCCC2)n1C |  | 100 |  |  |  |  |  |
| Cc1c(CN(CCc2ccc([N+](=O)[O-])cc2)C2CCN(C(=O)c3c(F)cccc3F)CC2)c(=O)n(-c2ccc(F)cc2)n1C | 235 | 6.3 | 35 | 95 | 100 (≈ 165 µM) |  |  |
| Cc1c(CN(CCc2ccc(Cl)cc2)C2CCN(C(=O)c3c(F)cccc3F)CC2)c(=O)n(-c2cnccc2Cl)n1C |  | 100 |  |  |  |  |  |
| COc1ccncc1-n1c(=O)c(CN(CCc2ccc(Cl)cc2)C2CCN(C(=O)c3c(F)cccc3F)CC2)c(C)n1C |  | 250 |  |  |  |  |  |
| Cc1c(CN(CCc2ccc(Cl)cc2)C2CCN(C(=O)c3c(F)cccc3F)CC2)c(=O)n(-c2ccccn2)n1C |  | 25 |  |  |  |  |  |
| Cc1c(CN(CCc2ccc(N)cc2)C2CCN(C(=O)c3c(F)cccc3F)CC2)c(=O)n(-c2ccc(F)cc2)n1C | < 50 | 2500 | 23 | 71 | 900 (≈ 1560 µM) | < 1 |  |
| Cc1c(CN(CCc2ccc(F)cc2)C2CCN(C(=O)c3c(F)cccc3F)CC2)c(=O)n(-c2ccc(F)cc2)n1C | 303 | 200 |  |  | 100 (≈ 172 µM) |  |  |
| Cc1c(CN(CCc2ccc(Cl)cc2)C2CCN(C(=O)c3cccc[n+]3[O-])CC2)c(=O)n(-c2ccc(F)cc2)n1C | < 50 | 200 | 15 | 55 | > 2000 | 1.3 |  |
| Cc1c(CN(CCc2ccc([N+](=O)[O-])cc2)C2CCN(C(=O)c3ccccn3)CC2)c(=O)n(-c2ccc(F)cc2)n1C | 62 | 12 | 29 | 82 | 1260 (≈ 2200 µM) | 7.8 |  |
| Cc1c(CN(CCCCc2ccccc2)C2CCN(C(=O)c3cccc4ccccc34)CC2)c(=O)n(-c2ccccc2)n1C |  | 158 |  |  |  |  |  |
| Cc1c(CN(CCc2cccnc2)C2CCN(C(=O)c3c(F)cccc3F)CC2)c(=O)n(-c2ccc(F)cc2)n1C | 113 | 2500 |  |  | > 2000 |  |  |
| Cc1ccc(C(=O)N2CCC(N(CCc3ccc([N+](=O)[O-])cc3)Cc3c(C)n(C)n(-c4ccc(F)cc4)c3=O)CC2)c(C)n1 | 79 | 12 | 38 | 94 | 1200 (≈ 2000 µM) |  |  |

Continued, values first:

| microsomal CLint [1] [µL/min/mg] | IC50 [2] [nM] | Stability (Hepatocyte [3]) [%] | Stability (Hepatocyte [4]) [%] | solubility [5] [µg/mL] | Papp A→B [6] [×10⁻⁶ cm/s] | IC50 [7] [nM] | Compound |
| --- | --- | --- | --- | --- | --- | --- | --- |
|  | 63 |  |  |  |  |  | Cc1c(CN(CCc2ccc(Cl)cc2)C2CCN(C(=O)c3c(F)cccc3F)CC2)c(=O)n(-c2ccc(Cl)cc2)n1C |
|  | 100 |  |  |  |  |  | Cc1c(CN(CCc2ccc(Cl)cc2)C2CCN(C(=O)c3c(F)cccc3F)CC2)c(=O)n(-c2ccc(N(C)C)cc2)n1C |
|  | 79 |  |  |  |  |  | Cc1c(CN(CCc2ccc(Cl)cc2)C2CCN(C(=O)c3c(F)cccc3F)CC2)c(=O)n(-c2ccc(N)cc2)n1C |
|  | 100 |  |  |  |  |  | Cc1c(CN(CCc2ccc(Cl)cc2)C2CCN(C(=O)c3c(F)cccc3F)CC2)c(=O)n(-c2ccc([N+](=O)[O-])cc2)n1C |
|  | 100 |  |  |  |  |  | Cc1c(CN(CCc2ccc(Cl)cc2)C2CCN(C(=O)c3c(F)cccc3F)CC2)c(=O)n(-c2cccc(F)c2)n1C |
| 472 | 20 | 52 | 95 | 1 (≈ 1.67 µM) | 8.1 | 16 | Cc1c(CN(CCc2ccc(Cl)cc2)C2CCN(C(=O)c3c(F)cccc3F)CC2)c(=O)n(-c2ccc(F)cc2)n1C |
|  | 100 |  |  |  |  |  | Cc1c(CN(CCc2ccc(Cl)cc2)C2CCN(C(=O)c3c(F)cccc3F)CC2)c(=O)n(-c2ccc(O)cc2)n1C |
|  | 100 |  |  |  |  |  | COc1ccc(-n2c(=O)c(CN(CCc3ccc(Cl)cc3)C3CCN(C(=O)c4c(F)cccc4F)CC3)c(C)n2C)cc1 |
|  | 2500 |  |  |  |  |  | Cc1c(CN(CCc2ccc(Cl)cc2)C2CCN(C(=O)c3c(F)cccc3F)CC2)c(=O)n(-c2ccc(C(=O)O)cc2)n1C |
|  | 32 |  |  |  |  |  | Cc1c(CN(CCc2ccc(Cl)cc2)C2CCN(C(=O)c3c(F)cccc3F)CC2)c(=O)n(-c2ccccc2)n1C |
|  | 158 |  |  |  |  |  | Cc1c(CN(CCc2ccc(Cl)cc2)C2CCN(C(=O)c3c(F)cccc3F)CC2)c(=O)n(-c2ccc(C#N)cc2)n1C |
|  | 400 |  |  |  |  |  | CC(=O)Nc1ccc(-n2c(=O)c(CN(CCc3ccc(Cl)cc3)C3CCN(C(=O)c4c(F)cccc4F)CC3)c(C)n2C)cc1 |
|  | 40 |  |  |  |  |  | Cc1c(CN(CCc2ccc(Cl)cc2)C2CCN(C(=O)c3c(F)cccc3F)CC2)c(=O)n(-c2ccccc2F)n1C |
